US20240279338A1, “Combination Treatment of Cancer” (Ares Trading S.A., priority 2021, published 2024)

How the values were obtained:
CD73 KO 4T1 tumor cells = experiment: CD73-KO 4T1 syngeneic tumor model, tumor growth; format: in vivo; conditions: CD73 KO 4T1, female BALB/c mice; Day 18 post treatment initiation; Compound A 300 mg/kg po bid; bintrafusp alfa 24.6 mg/kg iv days 0, 3, 6
Experimental: Female BALB/c mice were inoculated with 1×10^5 CD73 KO 4T1 tumor cells into the right mammary fat pad and were treated with Compound A (300 mg/kg po, bid), bintrafusp alfa (24.6 mg/kg iv, days 0, 3, 6), Compound A+bintrafusp alfa, when average tumor volume reached approximately 60 mm^3. Vehicle (po, bid) and isotype control antibody injections (20 mg/kg iv, days 0, 3, 6) were used as controls. (A) Average tumor volumes with SEM, and (B) individual tumor volumes are presented. Tumor volume data were analyzed using two-way ANOVA followed by Tukey's multiple comparison test.
Further to the results of Example 3, tumor growth inhibition by the combined treatment with the dual A2A/A2B receptor inhibitor “Compound A” ((S)-7-Oxa-2-aza-spiro[4.5]decane-2-carboxylic acid [7-(3,6-dihydro-2H-pyran-4-yl)-4-methoxy-thiazolo[4,5-c]pyridin-2-yl]-amide) and bintrafusp alfa was examined in a syngeneic 4T1 tumor model, in which CD73 was knocked-out using GenCRISPR™ gene editing technology (GenScript USA, Inc). Efficacy of CD73 knockout in 4T1 tumor cells was confirmed by flow cytometry. Female BALB/c mice were inoculated into the right mammary fat pad with 1×10^5 CD73 KO 4T1 tumor cells and were treated with Compound A (300 mg/kg po, bid), bintrafusp alfa (24.6 mg/kg iv, days 0, 3, 6), Compound A+bintrafusp alfa, when average tumor volume reached approximately 60 mm^3. […]

[1] = test system: human T cells co-cultured with MDA-MB-231 tumor cells; experiment: Rescue of IFNγ secretion from EBV-specific human T cells co-cultured with MDA-MB-231 tumor cells in presence of NECA; format: cell-based; conditions: Compound A 100 nM; bintrafusp alfa 1 μg/ml; 10 μM NECA; 74 hours of co-culture; T cells:tumor cells 0.5:1; ELISA
Experimental: Then 10 μM NECA was added to the corresponding groups and 1.3×10^4 of T cells in 100 μl volume were transferred per well of 96-well flat bottom plate with 2.6×10^4 cells/well of MDA-MB-231 tumor cells pre-loaded with EBV peptide (30 ng/ml, […], 21st Century) in 100 μl of RPM11640 media, supplemented with 10% FBS. The final ratio for T cells:MDA-MB-231 tumor cells=0.5:1. Cell culture supernatants were collected after 74 hours of co-culture, and IFNγ levels were measured using human IFNγ ELISA Kit (R&D Systems) according to manufacturer instructions. The percentage of IFNγ secretion rescue was calculated using following formula: 100%−(IFNγ in samples treated with NECA and Compound A alone or combination with bintrafusp alfa minus IFNγ in control sample)[…](IFNγ in samples with NECA minus IFNγ in control sample)*100%. Representative graph with the results shown as average of three samples per treatment group±SEM. P-values are calculated using one-way ANOVA Tukey comparison test. […]
Briefly, MDA-MB-231 tumor cells were seeded to the flat bottom 96-well plate at 2.6×10^4 cells/well (in 100 μl of RPMI1640 media, supplemented with 10% FBS) and loaded with EBV peptide (30 ng/ml, […], 21st Century). […] Cell culture supernatants were collected after 74 hours of co-culture, and IFNγ levels were measured using human IFNγ ELISA Kit (R&D Systems) according to manufacturer instructions. […]

E0771 cells = experiment: CD73hi E0771 syngeneic tumor model, tumor growth; format: in vivo, mice; conditions: for tumor growth inhibition, T/C: E0771, female C57BL/6 mice, Day 18 post treatment initiation
Experimental: Female C57BL/6 mice were inoculated with 1.5×10^5 E0771 cells into the right mammary fat pad and were treated with Compound A (300 mg/kg po, BID), bintrafusp alfa (8.2 mg/kg iv, days 0, 3, 6), Compound A+bintrafusp alfa, when average tumor volume reached approximately 75 mm^3. Vehicle (po, BID) and isotype control antibody injections (6.65 mg/kg iv, days 0, 3, 6) were used as controls. (A) Average tumor volumes with SEM, and (B) individual tumor volumes are presented. Tumor volume data were analyzed using two-way ANOVA followed by Tukey's multiple comparison test.
To determine whether combined treatment with the dual A2A/A2B receptor inhibitor “Compound A” ((S)-7-Oxa-2-aza-spiro[4.5]decane-2-carboxylic acid [7-(3,6-dihydro-2H-pyran-4-yl)-4-methoxy-thiazolo[4,5-c]pyridin-2-yl]-amide) and bintrafusp alfa can inhibit tumor growth in either CD73^hi or CD73^low models, tumor growth was monitored in […] syngeneic tumor models. Animals were inoculated with either CD73^hi tumor cells (4T1, E0771, or EMT6) or with CD73^low MC38, H22 or MBT2 tumor cells. For all tumor models, animals were treated with either 1) vehicle and isotype, 2) Compound A and isotype, 3) vehicle and bintrafusp alfa, or 4) Compound A and bintrafusp alfa.
In the third CD73^hi tumor model, female C57BL/6 mice were inoculated with 1.5×10^5 E0771 cells into the right mammary fat pad and were randomized into treatment groups when average tumor volume reached approximately 75 mm^3. […] Thus, to test its combination potential with Compound A in this model we had to reduce the dose for bintrafusp alfa from 24 mg/kg (iv, days 0, 3, and 6) down to 8.2 mg/kg (iv, days 0, 3, 6). Thus, E0771 tumor-bearing mice were treated with Compound A (300 mg/kg po, BID), bintrafusp alfa (8.2 mg/kg iv, days 0, 3, 6), Compound A+bintrafusp alfa starting the day 0 (when they were randomized into treatment groups). Vehicle (po, BID) and isotype control antibody injections (6.65 mg/kg iv, days 0, 3, 6) were used as controls.

[2] = Compound A 300 mg/kg po BID, bintrafusp alfa 8.2 mg/kg iv days 0, 3, 6

Row | Compound | tumor growth inhibition, T/C (CD73 KO 4T1 tumor cells) [%] | rescue of IFNγ secretion [1] | tumor growth inhibition, T/C (E0771 cells; [2]) [%] | mice with CR (complete responses) (E0771 cells; E0771, Compound A 300 mg/kg po BID, bintrafusp alfa 8.2 mg/kg iv days 0, 3, 6) | sensitivity of the tumor model (E0771 cells; E0771, bintrafusp alfa original dose 24.6 mg/kg iv days 0, 3, and 6)
1 | COc1ncc(C2=CCOCC2)c2sc(NC(=O)N3CC[C@@]4(CCCOC4)C3)nc12 [Compound A, (S)-7-Oxa-2-aza-spiro[4.5]decane-2-carboxylic acid [7-(3,6-dihydro-2H-pyran-4-yl)-4-methoxy-thiazolo[4,5-c]pyridin-2-yl]-amide] | 108 | approx. 71% | 72.9 | 1 | 
2 | bintrafusp alfa: anti-PD-L1:TGFβRII fusion protein, CAS 1918149-01-5; human IgG1 antibody against PD-L1 fused to extracellular domain of human TGF-β receptor II | 75.4 | ~24% | 65.7 |  | high sensitivity
